Some results are limits rather than exact numbers.

One data set concerns the target T1, Cytochrome P450 1A1 (Homo sapiens, UniProt P04798).
T1 sequence (P04798 whole entry): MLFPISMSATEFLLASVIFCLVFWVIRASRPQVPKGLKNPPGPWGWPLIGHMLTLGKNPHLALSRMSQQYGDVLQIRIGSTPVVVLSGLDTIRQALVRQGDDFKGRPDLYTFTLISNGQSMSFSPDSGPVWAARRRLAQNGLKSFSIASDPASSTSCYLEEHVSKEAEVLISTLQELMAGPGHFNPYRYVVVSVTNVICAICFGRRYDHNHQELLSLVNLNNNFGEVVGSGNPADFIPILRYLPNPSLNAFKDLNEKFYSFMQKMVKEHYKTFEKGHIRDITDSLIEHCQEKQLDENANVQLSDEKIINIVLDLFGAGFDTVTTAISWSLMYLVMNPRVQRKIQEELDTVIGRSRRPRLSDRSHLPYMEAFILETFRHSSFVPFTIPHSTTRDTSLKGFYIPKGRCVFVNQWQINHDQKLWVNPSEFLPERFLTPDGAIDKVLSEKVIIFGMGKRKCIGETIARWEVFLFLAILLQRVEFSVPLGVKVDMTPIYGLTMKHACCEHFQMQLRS
The experiment in a line: Inhibition of human recombinant CYP1A1 using 7-ethoxyresorufin as substrate incubated under dark condition for 15 mins in presence of NADPH by EROD fluorescence assay. The class given is ADME.

The target in the next data set is T2, Cytochrome P450 1A2 (Homo sapiens, UniProt P05177).
T2 sequence (P05177 whole entry): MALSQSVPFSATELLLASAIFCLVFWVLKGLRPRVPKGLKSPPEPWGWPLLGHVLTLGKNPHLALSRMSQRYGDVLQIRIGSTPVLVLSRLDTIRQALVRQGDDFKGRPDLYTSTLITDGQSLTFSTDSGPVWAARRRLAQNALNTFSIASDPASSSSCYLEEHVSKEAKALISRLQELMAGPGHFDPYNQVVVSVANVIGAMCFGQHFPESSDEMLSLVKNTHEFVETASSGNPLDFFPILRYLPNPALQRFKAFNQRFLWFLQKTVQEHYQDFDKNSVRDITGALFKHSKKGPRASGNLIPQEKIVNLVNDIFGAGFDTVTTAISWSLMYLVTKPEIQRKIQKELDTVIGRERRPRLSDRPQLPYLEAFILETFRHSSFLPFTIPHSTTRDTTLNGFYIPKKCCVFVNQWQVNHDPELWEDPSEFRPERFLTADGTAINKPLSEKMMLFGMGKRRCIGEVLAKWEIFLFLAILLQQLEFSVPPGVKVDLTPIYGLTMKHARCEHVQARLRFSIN
Description: Inhibition of human recombinant CYP1A2 using 7-ethoxyresorufin as substrate incubated under dark condition for 45 mins in presence of NADPH by EROD fluorescence assay. Type of data set: ADME.

Another data set concerns the target CYP2D6 (Homo sapiens, UniProt P10635). The experiment in a line: Inhibition of CYP2D6 in human liver microsome at 10 uM pre-incubated with compound for 5 mins followed NADPH addition and measured after 10 mins by LC-MS/MS analysis relative to control. The class given is ADME. To be noted: liver microsomes, time 15 min. (Microsomes from liver hold many membrane-bound enzymes, among them those of drug oxidation.)

For another data set, the target named is Cytochrome P450 2C19 (Homo sapiens, UniProt P33261). Description: Inhibition of CYP2C19 in human liver microsome pre-incubated with compound for 5 mins followed NADPH addition and measured after 30 mins by LC-MS/MS analysis. The class given is ADME, microsomes.
Chain of Cytochrome P450 2C19 (P33261 whole entry): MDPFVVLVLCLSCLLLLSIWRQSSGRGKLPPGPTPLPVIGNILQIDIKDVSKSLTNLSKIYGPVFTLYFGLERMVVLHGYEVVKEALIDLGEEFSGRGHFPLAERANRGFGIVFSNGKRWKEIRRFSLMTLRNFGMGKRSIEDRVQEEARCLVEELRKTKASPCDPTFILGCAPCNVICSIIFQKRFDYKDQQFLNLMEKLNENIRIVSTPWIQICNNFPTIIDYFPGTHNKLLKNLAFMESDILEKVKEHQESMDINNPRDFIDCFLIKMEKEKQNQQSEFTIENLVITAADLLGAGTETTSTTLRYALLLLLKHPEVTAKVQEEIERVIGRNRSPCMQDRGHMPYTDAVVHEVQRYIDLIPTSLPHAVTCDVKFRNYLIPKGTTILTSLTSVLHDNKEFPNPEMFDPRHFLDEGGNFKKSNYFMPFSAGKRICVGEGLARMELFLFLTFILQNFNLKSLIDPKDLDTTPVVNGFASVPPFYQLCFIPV
For the next data set, the target named is T3, Cytochrome P450 2C8 (Homo sapiens, UniProt P10632).
T3 sequence (P10632 whole entry): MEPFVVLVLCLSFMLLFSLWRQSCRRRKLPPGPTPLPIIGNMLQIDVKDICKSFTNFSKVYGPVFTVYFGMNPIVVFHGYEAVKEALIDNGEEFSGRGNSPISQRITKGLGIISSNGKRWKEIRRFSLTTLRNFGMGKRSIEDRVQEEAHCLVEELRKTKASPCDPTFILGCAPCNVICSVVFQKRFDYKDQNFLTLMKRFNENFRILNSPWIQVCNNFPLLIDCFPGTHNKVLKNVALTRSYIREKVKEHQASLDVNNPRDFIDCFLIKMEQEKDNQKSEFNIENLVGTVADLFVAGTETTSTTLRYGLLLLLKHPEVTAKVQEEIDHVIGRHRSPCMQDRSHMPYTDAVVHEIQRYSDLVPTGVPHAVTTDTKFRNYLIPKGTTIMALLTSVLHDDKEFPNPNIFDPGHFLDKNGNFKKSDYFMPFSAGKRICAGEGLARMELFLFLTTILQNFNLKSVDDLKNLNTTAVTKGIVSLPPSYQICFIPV
The experiment in a line: Inhibition of CYP2C8 in human liver microsome pre-incubated with compound for 5 mins followed NADPH addition and measured after 5 mins by LC-MS/MS analysis. The class given is ADME, microsomes.

For the next data set, the target named is Cytochrome P450 2C9 (Homo sapiens, UniProt P11712). Description: Inhibition of CYP2C9 in human liver microsome pre-incubated with compound for 5 mins followed NADPH addition and measured after 10 mins by LC-MS/MS analysis. The class given is ADME, microsomes.
Chain of Cytochrome P450 2C9 (P11712 whole entry): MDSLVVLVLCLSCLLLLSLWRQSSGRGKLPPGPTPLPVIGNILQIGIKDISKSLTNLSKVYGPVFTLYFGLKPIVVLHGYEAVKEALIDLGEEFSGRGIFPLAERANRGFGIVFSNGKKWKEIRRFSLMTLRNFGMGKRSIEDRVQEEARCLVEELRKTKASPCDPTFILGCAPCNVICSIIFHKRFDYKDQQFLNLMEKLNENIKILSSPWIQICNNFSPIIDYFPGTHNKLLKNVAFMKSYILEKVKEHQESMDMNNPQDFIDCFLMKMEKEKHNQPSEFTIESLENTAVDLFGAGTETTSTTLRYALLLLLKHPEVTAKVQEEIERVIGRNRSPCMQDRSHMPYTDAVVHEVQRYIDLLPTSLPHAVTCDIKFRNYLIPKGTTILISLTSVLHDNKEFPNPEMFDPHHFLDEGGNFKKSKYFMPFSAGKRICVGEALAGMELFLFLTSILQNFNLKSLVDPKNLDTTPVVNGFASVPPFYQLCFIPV
The next data set addresses Cytochrome P450 2D6 (Homo sapiens, UniProt P10635). The experiment in a line: Inhibition of CYP2D6 in human liver microsome pre-incubated with compound for 5 mins followed NADPH addition and measured after 10 mins by LC-MS/MS analysis. Type of data set: ADME, microsomes.
Another data set deals with A549. The experiment in a line: Antiproliferative against human A549 cells assessed as inhibition of cell viability incubated for 48 hrs by CCK-8 assay. The class given is functional, cell-based. To be noted: A549, 48 h.
Data set [1] is described as follows: Metabolic stability in liver microsomes (unknown origin) assessed as compound remaining at 0.5 mg/ml measured immediately in presence of NADPH regenerating system by LC-MS/MS analysis relative to control. The class given is ADME, Microsome. The conditions noted are these: read-out: Stability.
Data set [2] can be described thus: Metabolic stability in liver microsomes (unknown origin) assessed as half life at 0.5 mg/ml measured up to 60 mins by LC-MS/MS analysis. The class given is ADME, Microsome.
Data set [3] in a line: Metabolic stability in liver microsome (unknown origin) assessed as intrinsic clearance at 0.5 mg/mL measured up to 60 mins by LC-MS/MS analysis. Type of data set: ADME. The conditions noted are these: liver microsomes, read-out: CLH.
The test system of data set [4] is A549/TR. Description: Synergistic antiproliferative activity against human A549/Taxol cells assessed as combination index at 2.5 uM in presence of 0.025 uM paclitaxel by Chou-Talalay method. Type of data set: functional.
The test system of data set [5] is A549/TR. Description: Synergistic antiproliferative activity against human A549/Taxol cells assessed as combination index at 5 uM in presence of 0.05 uM paclitaxel by Chou-Talalay method. Type of data set: functional.
Data set [6] concerns A549/TR. Description: Synergistic antiproliferative activity against human A549/Taxol cells assessed as combination index at 20 uM in presence of 0.05 uM paclitaxel by Chou-Talalay method. Type of data set: functional.
Data set [7] has as its system A549/TR. Description: Inhibition of cell migration in human A549/Taxol cells assessed as wound closure at 5 uM measured after 24 hrs by scratch-wound healing assay relative to control. Type of data set: functional. Further details: scale not given: the % may be the effect or the level left.
For data set [8], the system named is A549/TR. The experiment in a line: Inhibition of cell invasion in human A549/Taxol cells assessed as reduction in cell migration incubated for 24 hrs by transwell invasion assay relative to control. Type of data set: functional, cell-based. The conditions noted are these: dose 2.5-10 µM.
The nature of data set [9]: MRT (0 to t) in male Sprague-Dawley rat at 10 mg/kg, po measured up to 24 hrs by LC-MS/MS analysis. Type of data set: ADME, organism-based. The conditions noted are these: in vivo.
Data set [10] is described as follows: AUC (0 to infinity) in male Sprague-Dawley rat at 2 mg/kg, iv measured up to 24 hrs by LC-MS/MS analysis. The conditions noted are these: in vivo. The class given is ADME, organism-based.

Chain of CYP2D6 (P10635 whole entry): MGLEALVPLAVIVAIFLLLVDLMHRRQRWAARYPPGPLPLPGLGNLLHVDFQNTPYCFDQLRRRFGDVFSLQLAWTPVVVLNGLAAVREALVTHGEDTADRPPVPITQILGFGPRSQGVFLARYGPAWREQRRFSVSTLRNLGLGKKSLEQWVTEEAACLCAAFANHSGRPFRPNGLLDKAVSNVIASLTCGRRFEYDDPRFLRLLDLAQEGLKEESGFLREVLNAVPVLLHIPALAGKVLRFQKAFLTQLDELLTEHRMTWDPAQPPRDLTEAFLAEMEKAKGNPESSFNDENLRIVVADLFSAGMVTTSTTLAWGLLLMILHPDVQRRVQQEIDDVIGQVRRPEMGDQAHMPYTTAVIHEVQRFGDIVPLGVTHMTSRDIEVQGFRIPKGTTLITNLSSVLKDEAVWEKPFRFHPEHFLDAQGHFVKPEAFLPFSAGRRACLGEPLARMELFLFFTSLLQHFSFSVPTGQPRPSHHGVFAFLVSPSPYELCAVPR
Chain of Cytochrome P450 2D6 (P10635 whole entry): as above

In general, IC50 refers to the concentration needed to halve the response being measured. In general, inhibition refers to the drop in the measured response relative to a control, in per cent. As a reminder, the half-life is the time needed for the level to fall by half in the phase considered. `N#Cc1ccc(-c2csc(C(=O)Nc3ccc(C(F)(F)F)cc3)n2)cc1`: the IC50 on Cytochrome P450 1A1 was 0.0773 µM; at Cytochrome P450 1A2, over 10 µM; on Cytochrome P450 2C19 it was 6.45 µM; at Cytochrome P450 2C8, over 10 µM; at Cytochrome P450 2C9, over 10 µM; at Cytochrome P450 2D6, over 10 µM. For the same compound, the IC50 in the data set with A549 was over 20 µM. Besides, the inhibition at 10 min, 10 µM on CYP2D6 turned out to be 23.1%. Moreover, the remaining at 0 min in data set [1] is 100%. In addition, the half-life in [2] was 1.17 h. Besides, the CLint scaled in [3] was 17.8 mL/min/kg.
The term MRT last denotes a mean duration of stay, worked out from the concentration-time curve. Usually AUC(0-inf) stands for total exposure, with the tail of the curve extrapolated. As for `O=C(Nc1cc(Cl)cc(Cl)c1)c1nc(-c2cccc(Cl)c2)cs1`, the IC50 is over 100 µM at Cytochrome P450 1A1; over 80 µM at Cytochrome P450 1A2; over 10 µM on Cytochrome P450 2C19; over 10 µM on Cytochrome P450 2C8; over 10 µM at Cytochrome P450 2C9; over 10 µM on Cytochrome P450 2D6. The IC50 in the data set with A549 is 7.5 µM. In addition, the inhibition at 10 min, 10 µM at CYP2D6 amounted to 0%. The CI in the data set with A549/TR [4] came to 0.75; in the data set on A549/TR [5], 0.16; with A549/TR [6], 0.38. For the same compound, the Activity in the data set with A549/TR [7] is listed as 3%. The inhibition result in the data set on A549/TR [8] is “Dose-dependent-effect”. Further, in data set [1], the remaining at 0 min was 100%. Besides, in data set [2], the half-life is over 1 h. For the same compound, the CLint scaled in [3] came to 1.1 mL/min/kg. Also, the mean residence time (MRT last) at 24 h in data set [9] stood at 2.32 h. The AUC(0-inf) in [10] worked out at 2300 ng·h/mL.
`N#Cc1ccc(-c2csc(C(=O)Nc3cc(Cl)cc(Cl)c3)n2)cc1`: the IC50 is over 100 µM at Cytochrome P450 1A1, over 100 µM on Cytochrome P450 1A2 and over 20 µM in the data set on A549. In addition, the inhibition at 10 min, 10 µM at CYP2D6 worked out at 0%. Moreover, the remaining at 0 min in data set [1] worked out at 100%. In addition, the half-life in [2] was over 1 h.

These data come from ChEMBL document CHEMBL6182948 (J Med Chem, 2025).
